Measured values as given in patent US11208405B2, “Pyrrole derivatives as PLK1 inhibitors” (SENTINEL ONCOLOGY LIMITED, priority 2017, dated 2021).
Counter-ions that a name gives are not always drawn.

What was measured:
[1] = system: HCT116 cells; assay: Effects on HCT116 colorectal cancer cell viability (cell titre blue, 72 hours); assay type: cell-based; details: Homo sapiens, HCT-116, HCT116 cell line
Experimental: Assay to Measure the Effects of Compounds of the Invention on HCT116 Colorectal Cancer Cell Viability
The following protocol was used to measure the effects of compounds of the invention on HCT116 cell viability.
1. HCT116 cells were grown in RPM11640 media supplemented with Glutamax and 10% FBS in a 37° C./5% CO2 incubator.
2. Growing culture of HCT116 cells were trypsinised, counted and diluted to give 10,000 cells/mL in an appropriate volume, allowing at least 6 mL of cells per plate.
3. 200 μL of PBS were added to all the outer wells of a flat-bottomed (8×12) 96-well TC plate. 100 μL of media were added only to wells in column 11 of the plates (these wells provided a blank for the cell titre blue assay). Two compounds were assayed on each plate.
4. 100 ul of 10,000 cells/mL HCT116s were plated in rows B-G of each plate.
5. The cells were incubated (37° C. 5% CO2) for 24 hours before treating with compounds.
6. An 8 mM compound stock in DMSO was prepared for all compounds to be tested. 2.5 μL of the compound stock was added to 1000 μL growth medium in a 96-well deep well block and serial dilutions were prepared across the plate by transferring 500 μL into wells containing 500 μL growth medium+0.25% DMSO to give eight concentrations of compound (this ensured a constant amount of DMSO at all concentrations of compound). When making up growth medium+DMSO, an amount of 5 ml was allowed per compound to be diluted.
7. 3 rows of cells were treated with 100 μL/well from each row on the dilution plate so that each cell plate is treated with a single compound. This gave a final volume in all wells of 200 μL and a titration of compound from a final concentration of 10 uM down to 78 nM.
8. The cells were incubated (37° C. 5% CO2) for 72 hours.
9. 5 ul cell titre blue reagent (Promega) were added to all wells except the edge wells (which contain PBS only) and incubated (37° C. 5% CO2) for 2.5-3 hours.
10. Fluorescence was measured on a suitable plate reader using a 530-570 nm filter set for excitation and a 580-620 nm filter set for fluorescence emission.
11. Data were analysed using an appropriate graphing package (such as GraphPad Prism). Data were expressed as the concentration of compound causing a 50% inhibition of cell viability or GI50.

[2] = system: HeLa cells; assay: Arresting cells in mitosis (Mitotic Index, phosphorylated Histone H3 immunofluorescence); assay type: cell-based; details: HeLa cell line, 24 hours; for EC50: Homo sapiens, Mitotic Index, read-out: EC50
Experimental: Assay to Measure the Effects of Compounds of the Invention on Arresting Cells in Mitosis
Inhibiting the ability of PLK1 to bind to its phosphopeptide binding partners through the PBD causes cells to arrest in mitosis. Experimentally, this is measured by assessing the number of cells which are in mitosis at a certain time after treatment with a PLK1-PBD inhibitor by immunofluorescent detection of phosphorylated Histone H3 (pH3), a marker which is only present in mitotic cells. PLK1-PBD inhibitors are expected to cause a dose-dependent increase in pH3-positive cells, which is reported as Mitotic Index (MI)—the percentage of cells which, at a given time, are positive for this mitotic mark. The following protocol has been used to measure MI: • 1. Plate HeLa cells at 10,000/well in 100 μL/well in clear flat-bottom 96-well plates and incubate overnight. • 2. Immediately prior to treatment, dilute compounds in medium in a 96-well round-bottom plate. Make up all compounds at 5 times final desired concentration on cells, and serially dilute 1:2 across the plate ensuring that there is 100 μL of each concentration (start with 200 μl of the top concentration on the left of the plate). […] Treat cells by adding 25 μL from the compound dilution plate to triplicate wells. • 4. Incubate cells with compound for 24 hours. • 5. After 24 hours, fixation and staining is carried out as follows: • 6. Dilute 37% formaldehyde in PBS to give a 12.95% solution by adding 3.5 mL formaldehyde to 6.5 mL of PBS. • 7. Add 50 μL of formaldehyde fixation solution directly to each well of cells (which already contain 125 μL medium). • 8. Incubate at room temp for 10 minutes. • 9. Remove fixative and add 100 μL/well PBS+0.1% Triton X-100 for 10 minutes. • 10. Aspirate and add 100 μL/well PBS+1% BSA. • 11. Aspirate and add 50 μL/well of primary antibody (anti-PH3 [1:2000]/anti-MPM2 [1:1000]) diluted in PBS+1% BSA. Incubate for 1 hour. • 12. Wash×2 with 100 μL/well PBS+1% BSA. • 13. Add 50 μL/well of secondary antibody plus Hoechst stain (anti-rabbit Alexafluor 488 [1:500]; anti-mouse Alexafluor 546 [1:500]+Hoechst 33342 [1:2500 final concentration=4 μg/mL])diluted in PBS+1% BSA. Incubate for 1 hour. • 14. Wash twice with 100 μL/well PBS+1% BSA. • 15. Aspirate and add 100 μL/well PBS. Plates can be stored at 4° C. in PBS for several weeks before scanning on the Cellomics Arrayscan. […] Scan on Cellomics using Target Activation Bioapplication. • 17. MI data emerging from the Cellomic Bioapplication can be used to plot MI versus compound concentration, and subsequently used to generate an EC50 value for each compound using an appropriate graphing/curve-fitting package such as GraphPad Prism.

| Structure (SMILES) | GI50 [1] | EC50 [2] | % mitotic cells [2] |
| --- | --- | --- | --- |
| CN1CC[C@@H](NC(=O)c2cccc(-c3ccc(-c4ccc(Br)cc4)n3-c3ccccc3C(F)(F)F)c2)C1 [Example 13, hydrochloride] | 660 nM | 750 nM | 71% |
| CN(C)CCCOc1cccc(-c2ccc(-c3ccc(Br)cc3)n2-c2ccccc2C(F)(F)F)c1 [Example 17, 3-[3-[5-(4-Bromophenyl)-1-[2-(trifluoromethyl)phenyl]pyrrol-2-yl]phenoxy]-N,N-dimethyl-propan-1-amine Hydrochloride] |  | 1450 nM | 65% |
| CN1CCC(CNC(=O)c2cccc(-c3ccc(-c4ccc(Br)cc4)n3-c3ccccc3C(F)(F)F)c2)CC1 [Example 10] | 340 nM | 780 nM | 62% |
| CN(C)CCNC(=O)c1cccc(-c2ccc(-c3ccccc3)n2-c2ccccc2C(F)(F)F)c1 [Example 3, hydrochloride] |  | 1580 nM | 65% |
| CN1CCC(NC(=O)c2cccc(-c3ccc(-c4ccc(Br)cc4)n3-c3ccccc3C(F)(F)F)c2)CC1 [Example 11, hydrochloride] | 360 nM | 800 nM | 54% |
| CN(C)CCNC(=O)c1ccc(-c2ccc(-c3ccc(C#N)nc3)n2-c2ccccc2C(F)(F)F)cc1 [Example 66, hydrochloride] | 890 nM |  |  |
| CN(C)CCNC(=O)c1cccc(-c2ccc(-c3ccc(Br)cc3)n2-c2ccc(Cl)cc2C(F)(F)F)c1 [Example 4, hydrochloride] |  | 550 nM | 65% |
| CN(C)CCN(C)C(=O)c1cccc(-c2ccc(-c3ccc(Br)cc3)n2-c2ccccc2C(F)(F)F)c1 [Example 12, hydrochloride] | 290 nM | 790 nM | 62% |
| CN(C)Cc1cccc(-c2ccc(-c3ccc(Br)cc3)n2-c2ccccc2C(F)(F)F)c1 [Example 7, 1-[3-[5-(4-bromophenyl)-1-[2-(trifluoromethyl)phenyl]pyrrol-2-yl]phenyl]-N,N-dimethyl-methanamine Hydrochloride] | 1060 nM | 2200 nM | 75% |
| CC(C)Cc1ccc(C(F)(F)F)c(-n2c(-c3ccc(Cl)cc3)ccc2-c2ccc(C(=O)NCCCN(C)C)cc2)c1 [Example 64, hydrochloride] | 1700 nM |  |  |
| CN(C)CCCNC(=O)c1ccc(-c2ccc(-c3ccccc3)n2-c2cnccc2C(F)(F)F)c(Cl)c1 [Example 68, hydrochloride] | 110 nM |  |  |
| CC(C)c1ccc(-c2ccc(-c3cccc(C(=O)NCCN(C)C)c3)n2-c2ccccc2C(F)(F)F)cc1 [Example 22, hydrochloride] | 2750 nM | > 10000 nM | 5% |
| CN(C)CCNCc1cccc(-c2ccc(-c3ccc(Br)cc3)n2-c2ccccc2C(F)(F)F)c1 [Example 18, hydrochloride] |  | 1640 nM | 67% |
| CN(C)CCNC(=O)c1cccc(-c2ccc(-c3ccc(Oc4ccccc4)cc3)n2-c2ccc(F)cc2)c1 [Example 8, hydrochloride] | 1850 nM |  |  |
| O=C(O)c1ccc(-c2ccc(-c3ccc(Br)cc3)n2-c2ccccc2C(F)(F)F)nc1 [Example 30, 6-[5-(4-bromophenyl)-1-[2-(trifluoromethyl)phenyl]pyrrol-2-yl]pyridine-3-carboxylic acid] | 8440 nM |  |  |
| CN(C)CC(=O)NCc1cccc(-c2ccc(-c3ccc(Br)cc3)n2-c2ccccc2C(F)(F)F)c1 [Example 21, N-[[3-[5-(4-Bromophenyl)-1-[2-(trifluoromethyl)phenyl]pyrrol-2-yl]phenyl]methyl]-2-(dimethylamino)acetamide Hydrochloride] | 1060 nM |  |  |
| CN1CCC(NC(=O)c2cccc(-c3ccc(-c4ccc(Br)cc4)n3-c3ccccc3C(F)(F)F)c2)C1 (stereo not drawn) [Example 14, hydrochloride] |  | 830 nM | 68% |
| CN(C)CCNC(=O)c1ccc(Cl)c(-c2ccc(-c3ccc(Br)cc3)n2-c2ccccc2)c1 [Example 19, hydrochloride] | 4210 nM |  |  |
| CN(C)CCNC(=O)c1ccc(-c2ccc(-c3ccc(Br)cc3)n2-c2ccccc2CN(C)C)cc1 [Example 40, hydrochloride] | 1030 nM |  |  |
| CN(C)CCNC(=O)c1cccc(-c2ccc(-c3ccc(Br)cc3)n2-c2cnccc2C(F)(F)F)c1 [Example 6] | 200 nM | 660 nM | 86% |

More lines, main results first:

| GI50 [1] | EC50 [2] | Structure (SMILES) | % mitotic cells [2] |
| --- | --- | --- | --- |
| 3920 nM |  | CN(C)CCCNC(=O)c1ccc(-c2ccc(-c3ccc(Cl)cc3)n2-c2ncccc2C(F)(F)F)cc1 [Example 80, hydrochloride] |  |
| 80 nM |  | O=C(NCCN1CCOCC1)c1ccc(-c2ccc(-c3ccc(Cl)cc3)n2-c2cnccc2C(F)(F)F)cc1 [Example 81, hydrochloride] |  |
| 90 nM |  | COc1cc(C(=O)NCCN(C)C)ccc1-c1ccc(-c2ccc(Cl)cc2)n1-c1cnccc1C(F)(F)F [Example 73, hydrochloride] |  |
| 150 nM |  | CN(C)CCNC(=O)c1ccc(-c2ccc(-c3ccc(Cl)cn3)n2-c2ccccc2C(F)(F)F)cc1 [Example 75, hydrochloride] |  |
| 1730 nM |  | CN(C)CCNC(=O)c1ccc(-c2ccc(-c3cccc(Cl)c3)n2-c2ccccc2C(F)(F)F)cc1 [Example 72, hydrochloride] |  |
| 380 nM |  | O=C(c1cccc(-c2ccc(-c3ccc(Br)cc3)n2-c2ccccc2C(F)(F)F)c1)N1CCC(Cc2cccnc2)CC1 [Example 102, hydrochloride] |  |
| 500 nM |  | CN(C)CCNC(=O)Nc1ccc(-c2ccc(-c3ccc(Cl)cc3)n2-c2ccccc2C(F)(F)F)cc1 [Example 90, 1-[4-[5-(4-Chlorophenyl)-1-[2-(trifluoromethyl)phenyl]pyrrol-2-yl]phenyl]-3-[2-(dimethylamino)-ethyl]urea Hydrochloride] |  |
| 150 nM |  | O=C(NCCN1CCOCC1)c1ccc(-n2ncc(-c3ccc(Cl)cc3)c2-c2ccccc2C(F)(F)F)cc1 [Example 104, hydrochloride] |  |
| 130 nM |  | O=C(Cc1ccc(-c2ccc(-c3ccc(Cl)cc3)n2-c2ccccc2C(F)(F)F)cc1)NCCN1CCOCC1 [Example 100, hydrochloride] |  |
| 160 nM |  | CN(C)CCNC(=O)C(C)(C)c1ccc(-c2ccc(-c3ccc(Cl)cc3)n2-c2ccccc2C(F)(F)F)cc1 [Example 107, hydrochloride] |  |
| 20 nM |  | CN(C)CCNC(=O)c1ccc(-c2ccc(-c3ccc(Cl)cc3)n2-c2ccc(F)cc2C(F)(F)F)cc1 [Example 97, hydrochloride] |  |
| 130 nM |  | COc1cc(C(=O)NCCCN(C)C)ccc1-c1ccc(-c2ccc(Cl)cc2)n1-c1cnccc1C(F)(F)F [Example 74, hydrochloride] |  |
